# Assay results from US6358885B1, “Substituted phenylheterocyclic herbicides” (Mississippi State University, priority 1992, dated 2002).
# Legend:
# Experiment in all cases: Test B preemergence/postemergence greenhouse plant response rating 0 to 10
# barley = type: in vivo, Hordeum vulgare; settings: for Plant response rating, Barley: 0 to 10 scale
# Procedure, shortened: (§1)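 Both application timings were run together: seeds got compound preemergence, and established seedlings (two to eighteen cm) got it postemergence. Non-phytotoxic solvent carried the chemical. Ratings are visual, versus controls, at twelve to sixteen days.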
# barnyardgrass = type: in vivo, Echinochloa crus-galli; settings: for Plant response rating, Barnyardgrass: 0 to 10 scale
# Procedure, shortened: as §1
# bedstraw = type: in vivo, Galium aparine; settings: for Plant response rating, Bedstraw: 0 to 10 scale
# Procedure, shortened: as §1
# blackgrass = type: in vivo, Alopecurus myosuroides; settings: for Plant response rating, Blackgrass: 0 to 10 scale
# Procedure, shortened: as §1
# cheatgrass = type: in vivo, Bromus secalinus; settings: for Plant response rating, Cheatgrass: 0 to 10 scale
# Procedure, shortened: as §1
# chickweed = type: in vivo, Stellaria media; settings: for Plant response rating, Chickweed: 0 to 10 scale
# Procedure, shortened: as §1
# cocklebur = type: in vivo, Xanthium pensylvanicum; settings: for Plant response rating, Cocklebur: 0 to 10 scale
# Procedure, shortened: as §1
# corn = type: in vivo, Zea mays; settings: for Plant response rating, Corn: 0 to 10 scale
# Procedure, shortened: as §1
# cotton = type: in vivo, Gossypium hirsutum; settings: for Plant response rating, Cotton: 0 to 10 scale
# Procedure, shortened: as §1
# crabgrass = type: in vivo, Digitaria spp.; settings: for Plant response rating, Crabgrass: 0 to 10 scale
# Procedure, shortened: as §1
# giant foxtail = type: in vivo, Setaria faberii; settings: for Plant response rating, Giant foxtail: 0 to 10 scale
# Procedure, shortened: as §1
# lambsquarters = type: in vivo, Chenopodium album; settings: for Plant response rating, Lambsquarter: 0 to 10 scale
# Procedure, shortened: as §1
# morningglory = type: in vivo, Ipomoea hederacea; settings: for Plant response rating, Morningglory: 0 to 10 scale
# Procedure, shortened: as §1
# rape = type: in vivo, Brassica napus; settings: for Plant response rating, Rape: 0 to 10 scale
# Procedure, shortened: as §1
# rice = type: in vivo, Oryza sativa; settings: for Plant response rating, Rice: 0 to 10 scale
# Procedure, shortened: as §1
# sorghum = type: in vivo, Sorghum bicolor; settings: for Plant response rating, Sorghum: 0 to 10 scale
# Procedure, shortened: as §1
# soybean = type: in vivo, Glycine max; settings: for Plant response rating, Soybean: 0 to 10 scale
# Procedure, shortened: as §1
# sugar beet = type: in vivo, Beta vulgaris; settings: for Plant response rating, Sugar beet: 0 to 10 scale
# Procedure, shortened: as §1
# velvetleaf = type: in vivo, Abutilon theophrasti; settings: for Plant response rating, Velvetleaf: 0 to 10 scale
# Procedure, shortened: as §1
# wheat = type: in vivo, Triticum aestivum; settings: for Plant response rating, Wheat: 0 to 10 scale
# Procedure, shortened: as §1
# wild buckwheat = type: in vivo, Polygonum convolvulus; settings: for Plant response rating, Wild buckwheat: 0 to 10 scale
# Procedure, shortened: as §1
# wild oat = type: in vivo, Avena fatua; settings: for Plant response rating, Wild oat: 0 to 10 scale
# Procedure, shortened: as §1
# purple nutsedge = type: in vivo, Cyperus rotundus; settings: for Plant response rating, Nutsedge: 0 to 10 scale
# Procedure, shortened: as §1
smiles,measurement,setting,value
Oc1cc(-c2nn3c(c2Br)CCCC3)c(F)cc1Cl [Compound 81],"Plant response rating, Barley","barley; POSTEMERGENCE, Rate 50 g/ha",3
same,"Plant response rating, Barley","barley; PREEMERGENCE, Rate 50 g/ha",0
same,"Plant response rating (0 to 10 scale), Barley","barley; PREEMERGENCE, Rate 200 g/ha",0
same,"Plant response rating, Barley","barley; Rate 200 g/ha, POSTEMERGENCE",3
same,"Plant response rating, Barnyardgrass","barnyardgrass; POSTEMERGENCE, Rate 50 g/ha",8
same,"Plant response rating, Barnyardgrass","barnyardgrass; PREEMERGENCE, Rate 50 g/ha",0
same,"Plant response rating (0 to 10 scale), Barnyardgrass","barnyardgrass; PREEMERGENCE, Rate 200 g/ha",0
same,"Plant response rating, Barnyardgrass","barnyardgrass; Rate 200 g/ha, POSTEMERGENCE",7
same,"Plant response rating, Bedstraw","bedstraw; POSTEMERGENCE, Rate 50 g/ha",9
same,"Plant response rating, Bedstraw","bedstraw; PREEMERGENCE, Rate 50 g/ha",0
same,"Plant response rating (0 to 10 scale), Bedstraw","bedstraw; PREEMERGENCE, Rate 200 g/ha",9
same,"Plant response rating, Bedstraw","bedstraw; Rate 200 g/ha, POSTEMERGENCE",10
same,"Plant response rating, Blackgrass","blackgrass; POSTEMERGENCE, Rate 50 g/ha",2
same,"Plant response rating, Blackgrass","blackgrass; PREEMERGENCE, Rate 50 g/ha",0
same,"Plant response rating (0 to 10 scale), Blackgrass","blackgrass; PREEMERGENCE, Rate 200 g/ha",3
same,"Plant response rating, Blackgrass","blackgrass; Rate 200 g/ha, POSTEMERGENCE",4
same,"Plant response rating, Cheatgrass","cheatgrass; POSTEMERGENCE, Rate 50 g/ha",3
same,"Plant response rating, Cheatgrass","cheatgrass; PREEMERGENCE, Rate 50 g/ha",0
same,"Plant response rating (0 to 10 scale), Cheatgrass","cheatgrass; PREEMERGENCE, Rate 200 g/ha",4
same,"Plant response rating, Cheatgrass","cheatgrass; Rate 200 g/ha, POSTEMERGENCE",4
same,"Plant response rating, Chickweed","chickweed; POSTEMERGENCE, Rate 50 g/ha",2
same,"Plant response rating, Chickweed","chickweed; PREEMERGENCE, Rate 50 g/ha",0
same,"Plant response rating (0 to 10 scale), Chickweed","chickweed; PREEMERGENCE, Rate 200 g/ha",9
same,"Plant response rating, Chickweed","chickweed; Rate 200 g/ha, POSTEMERGENCE",3
same,"Plant response rating, Cocklebur","cocklebur; POSTEMERGENCE, Rate 50 g/ha",8
same,"Plant response rating, Cocklebur","cocklebur; PREEMERGENCE, Rate 50 g/ha",0
same,"Plant response rating (0 to 10 scale), Cocklebur","cocklebur; PREEMERGENCE, Rate 200 g/ha",0
same,"Plant response rating, Cocklebur","cocklebur; Rate 200 g/ha, POSTEMERGENCE",10
same,"Plant response rating, Corn","corn; POSTEMERGENCE, Rate 50 g/ha",2
same,"Plant response rating, Corn","corn; PREEMERGENCE, Rate 50 g/ha",0
same,"Plant response rating (0 to 10 scale), Corn","corn; PREEMERGENCE, Rate 200 g/ha",0
same,"Plant response rating, Corn","corn; Rate 200 g/ha, POSTEMERGENCE",3
same,"Plant response rating, Cotton","cotton; POSTEMERGENCE, Rate 50 g/ha",10
same,"Plant response rating, Cotton","cotton; PREEMERGENCE, Rate 50 g/ha",0
same,"Plant response rating (0 to 10 scale), Cotton","cotton; PREEMERGENCE, Rate 200 g/ha",0
same,"Plant response rating, Cotton","cotton; Rate 200 g/ha, POSTEMERGENCE",10
same,"Plant response rating, Crabgrass","crabgrass; POSTEMERGENCE, Rate 50 g/ha",4
same,"Plant response rating, Crabgrass","crabgrass; PREEMERGENCE, Rate 50 g/ha",0
same,"Plant response rating (0 to 10 scale), Crabgrass","crabgrass; PREEMERGENCE, Rate 200 g/ha",0
same,"Plant response rating, Crabgrass","crabgrass; Rate 200 g/ha, POSTEMERGENCE",6
same,"Plant response rating, Giant foxtail","giant foxtail; POSTEMERGENCE, Rate 50 g/ha",4
same,"Plant response rating, Giant foxtail","giant foxtail; PREEMERGENCE, Rate 50 g/ha",0
same,"Plant response rating (0 to 10 scale), Giant foxtail","giant foxtail; PREEMERGENCE, Rate 200 g/ha",2
same,"Plant response rating, Giant foxtail","giant foxtail; Rate 200 g/ha, POSTEMERGENCE",8
same,"Plant response rating, Lambsquarter","lambsquarters; POSTEMERGENCE, Rate 50 g/ha",10
same,"Plant response rating, Lambsquarter","lambsquarters; PREEMERGENCE, Rate 50 g/ha",9
same,"Plant response rating (0 to 10 scale), Lambsquarter","lambsquarters; PREEMERGENCE, Rate 200 g/ha",10
same,"Plant response rating, Lambsquarter","lambsquarters; Rate 200 g/ha, POSTEMERGENCE",10
same,"Plant response rating, Morningglory","morningglory; POSTEMERGENCE, Rate 50 g/ha",9
same,"Plant response rating, Morningglory","morningglory; PREEMERGENCE, Rate 50 g/ha",0
same,"Plant response rating (0 to 10 scale), Morningglory","morningglory; PREEMERGENCE, Rate 200 g/ha",0
same,"Plant response rating, Morningglory","morningglory; Rate 200 g/ha, POSTEMERGENCE",10
same,"Plant response rating, Rape","rape; POSTEMERGENCE, Rate 50 g/ha",3
same,"Plant response rating, Rape","rape; PREEMERGENCE, Rate 50 g/ha",0
same,"Plant response rating (0 to 10 scale), Rape","rape; PREEMERGENCE, Rate 200 g/ha",7
same,"Plant response rating, Rape","rape; Rate 200 g/ha, POSTEMERGENCE",7
same,"Plant response rating, Rice","rice; POSTEMERGENCE, Rate 50 g/ha",6
same,"Plant response rating, Rice","rice; PREEMERGENCE, Rate 50 g/ha",0
same,"Plant response rating (0 to 10 scale), Rice","rice; PREEMERGENCE, Rate 200 g/ha",0
same,"Plant response rating, Rice","rice; Rate 200 g/ha, POSTEMERGENCE",6
same,"Plant response rating, Sorghum","sorghum; POSTEMERGENCE, Rate 50 g/ha",3
same,"Plant response rating, Sorghum","sorghum; PREEMERGENCE, Rate 50 g/ha",0
same,"Plant response rating (0 to 10 scale), Sorghum","sorghum; PREEMERGENCE, Rate 200 g/ha",0
same,"Plant response rating, Sorghum","sorghum; Rate 200 g/ha, POSTEMERGENCE",3
same,"Plant response rating, Soybean","soybean; POSTEMERGENCE, Rate 50 g/ha",6
same,"Plant response rating, Soybean","soybean; PREEMERGENCE, Rate 50 g/ha",0
same,"Plant response rating (0 to 10 scale), Soybean","soybean; PREEMERGENCE, Rate 200 g/ha",0
same,"Plant response rating, Soybean","soybean; Rate 200 g/ha, POSTEMERGENCE",7
same,"Plant response rating, Sugar beet","sugar beet; POSTEMERGENCE, Rate 50 g/ha",10
same,"Plant response rating, Sugar beet","sugar beet; PREEMERGENCE, Rate 50 g/ha",0
same,"Plant response rating (0 to 10 scale), Sugar beet","sugar beet; PREEMERGENCE, Rate 200 g/ha",9
same,"Plant response rating, Sugar beet","sugar beet; Rate 200 g/ha, POSTEMERGENCE",10
same,"Plant response rating, Velvetleaf","velvetleaf; POSTEMERGENCE, Rate 50 g/ha",9
same,"Plant response rating, Velvetleaf","velvetleaf; PREEMERGENCE, Rate 50 g/ha",3
same,"Plant response rating (0 to 10 scale), Velvetleaf","velvetleaf; PREEMERGENCE, Rate 200 g/ha",10
same,"Plant response rating, Velvetleaf","velvetleaf; Rate 200 g/ha, POSTEMERGENCE",10
same,"Plant response rating, Wheat","wheat; POSTEMERGENCE, Rate 50 g/ha",3
same,"Plant response rating, Wheat","wheat; PREEMERGENCE, Rate 50 g/ha",0
same,"Plant response rating (0 to 10 scale), Wheat","wheat; PREEMERGENCE, Rate 200 g/ha",2
same,"Plant response rating, Wheat","wheat; Rate 200 g/ha, POSTEMERGENCE",4
same,"Plant response rating, Wild buckwheat","wild buckwheat; POSTEMERGENCE, Rate 50 g/ha",10
same,"Plant response rating, Wild buckwheat","wild buckwheat; PREEMERGENCE, Rate 50 g/ha",0
same,"Plant response rating (0 to 10 scale), Wild buckwheat","wild buckwheat; PREEMERGENCE, Rate 200 g/ha",10
same,"Plant response rating, Wild buckwheat","wild buckwheat; Rate 200 g/ha, POSTEMERGENCE",10
same,"Plant response rating, Wild oat","wild oat; POSTEMERGENCE, Rate 50 g/ha",2
same,"Plant response rating, Wild oat","wild oat; PREEMERGENCE, Rate 50 g/ha",0
same,"Plant response rating (0 to 10 scale), Wild oat","wild oat; PREEMERGENCE, Rate 200 g/ha",3
same,"Plant response rating, Wild oat","wild oat; Rate 200 g/ha, POSTEMERGENCE",3
same,"Plant response rating, Nutsedge","purple nutsedge; PREEMERGENCE, Rate 50 g/ha",0
same,"Plant response rating (0 to 10 scale), Nutsedge","purple nutsedge; PREEMERGENCE, Rate 200 g/ha",0
same,"Plant response rating, Nutsedge","purple nutsedge; Rate 200 g/ha, POSTEMERGENCE",3
